The source of these data is PMC3618674 (Brain research, 2012).

The target in data set [1] is T1, human liver catechol-O-methyltransferase (COMT) (Homo sapiens, UniProt P21964).
T1 sequence (P21964 1-221 isoform P21964-2): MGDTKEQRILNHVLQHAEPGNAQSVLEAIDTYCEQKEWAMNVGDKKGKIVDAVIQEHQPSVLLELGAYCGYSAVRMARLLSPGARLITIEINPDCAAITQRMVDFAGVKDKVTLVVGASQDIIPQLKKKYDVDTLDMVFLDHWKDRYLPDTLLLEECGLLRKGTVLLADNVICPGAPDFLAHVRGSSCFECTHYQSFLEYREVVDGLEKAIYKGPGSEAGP
Put plainly: in vitro O-methylation of L-DOPA catalyzed by human liver cytosolic COMT. The format is biochemical.

Data set [2] is described as follows: in vivo. The note with it: rat, ip, 400 mg/kg.
The subject of data set [3] is L-DOPA methylation. The note with it: rats; for effect on plasma 3-OMD levels: 400 mg/kg i.p. 2 h before L-DOPA/carbidopa 20/5 mg/kg; for effect on striatal 3-OMD levels / effect on striatal dopamine levels: 400 mg/kg i.p., striatum at 6 h after L-DOPA/carbidopa 20/5 mg/kg.
Data set [4] deals with 6-hydroxydopamine-induced neurotoxicity. The note with it: ref Leaver et al., 2009; cited from earlier work.
Data set [5] concerns L-DOPA methylation. Put plainly: Animal experiment III: L-DOPA methylation in dopamine-depleted. It is filed as in vivo, rat.
Data set [6] deals with kainic acid-induced hippocampal neurodegeneration. Briefly: Animal experiment IV: kainic acid-induced rat hippocampal injury. The format is in vivo. The note with it: rats.
The subject of data set [7] is L-DOPA methylation. It is filed as in vivo, rat. The note with it: rats.
Data set [8] relates to NF-κB. Briefly: NF-κB-Luc reporter transcriptional activity in glutamate-treated HT22 cells. It is filed as cell-based, mouse. The note with it: HT22 cells transfected with NF-κB-Luc; 5 mM glutamate, 40 μM (+)-catechin, 8 h.
Data set [9] concerns HT22 mouse hippocampal neuronal cells. Briefly: Glutamate-induced oxidative cell death, MTT cell viability. The note with it: 5 mM glutamate, 24 h, co-treatment. It is filed as cell-based.
Data set [10] deals with 6-hydroxydopamine-induced neuronal damage. Briefly: 6-hydroxydopamine-induced neuronal damage model. The note with it: data not shown.
Data set [11] deals with HT22 mouse hippocampal neuronal cells. Briefly: Glutamate-induced intracellular ROS accumulation. The format is cell-based. The note with it: 5 mM glutamate.
Setting [12] is: rats, reserpine 5 mg/kg i.p. 18-20 h before.
Where [13] appears, read: reserpinized rats, co-treatment with L-DOPA/carbidopa 20/20 mg/kg.

Where two headings read alike, the source gives them in different places.

A word on the IC50: it is the midpoint of a concentration-inhibition curve. In the case of `Oc1cc(O)c2c(c1)O[C@H](c1ccc(O)c(O)c1)[C@H](O)C2` [(−)-epicatechin], in data set [1], the IC50 was 10.7 ± 6.7 µM. The concentration at 30 min in [2] is 88.6 ± 39.2 µM. In data set [3], the “effect on plasma 3-OMD levels” value is “did not have a similar effect”, the “effect on striatal 3-OMD levels” value was “no significant change” and the “effect on striatal dopamine levels” value is on record as “no significant change”.
Turning to `O=c1c(O)c(-c2ccc(O)c(O)c2)oc2cc(O)cc(O)c12` [quercetin], in [1], half-maximal inhibition (IC50) was put at 1.9 ± 0.4 µM. Moreover, the concentration at 30 min in data set [2] is 12.6 ± 0.1 µM. In data set [3], the “effect on plasma 3-OMD levels” value is reported as “did not have a similar effect”, the “effect on striatal 3-OMD levels” value is “no significant change” and the “effect on striatal dopamine levels” value is “no significant change”.
In the case of `O=C(O[C@@H]1Cc2c(O)cc(O)cc2O[C@@H]1c1cc(O)c(O)c(O)c1)c1cc(O)c(O)c(O)c1` [EGCG, (−)-epigallocatechin-3-gallate], the “effect in 6-hydroxydopamine-induced neurotoxicity model” value in [4] was “ineffective”.
For the compound `COC(=O)[C@H]1[C@H]2C[C@@H]3c4[nH]c5cc(OC)ccc5c4CCN3C[C@H]2C[C@@H](OC(=O)c2cc(OC)c(OC)c(OC)c2)[C@@H]1OC` [reserpine, reference compound], in [5] (setting [12]), the “decrease of striatal dopamine levels compared to normal control animals” value is “over 80%” and the “striatal dopamine levels relative to non-reserpinized control rats” value was “approximately 20%”.
Take `Oc1cc(O)c2c(c1)O[C@H](c1ccc(O)c(O)c1)[C@@H](O)C2` [(+)-catechin]: in [6] ((+)-catechin 400 mg/kg 30 min before i.c.v. kainic acid, 24 h, CA3), the “kainic acid-induced increase in GFAP expression in astrocytes” value was “reduced”. In addition, in data set [6] ((+)-catechin 30 min before i.c.v. kainic acid), the “effect on kainic acid-induced seizure behavior” value is on record as “no appreciable behavioral differences”. Also, the “time required to reach maximal L-DOPA plasma concentration” value in [7] ((+)-catechin 400 mg/kg 2 h before L-DOPA/carbidopa 20/20 mg/kg, vs control) was “modestly shifted to the right”. Moreover, the “effect on striatal 3-OMD levels” value in data set [7] (L-DOPA/carbidopa 20/20 mg/kg) is on record as “markedly reduced”; in data set [5] (setting [13]), “markedly reduced”; in data set [3] it was “significantly reduced”. Also, the “effect on striatal dopamine levels” value in data set [7] (L-DOPA/carbidopa 20/20 mg/kg) is “not significantly affected”; in [5] (setting [13]), “restored to levels comparable to those in normal rats”; in data set [3] it was “only slightly changed”. Also, in data set [8], the “effect on transcriptional activity of NF-κB” value is recorded as “significantly attenuated”. In addition, the “effect on glutamate-induced cell death (cell viability)” value in data set [9] is “abrogated cell death in a concentration-dependent manner”. The “protective effect in 6-hydroxydopamine-induced neuronal damage model” value in data set [10] is reported as “did not show any appreciable protective effect”. Also, the “effect on plasma 3-OMD levels” value in data set [3] is recorded as “significantly reduced”. For the same compound, in data set [11], the “effect on glutamate-induced accumulation of intracellular ROS” value is given as “reduced”.
